This note sets out measurements from patent publication US20230158071A1, “TUMOR COMBINED IMMUNOTHERAPY” (CRAGE medical Co., Limited, priority 2018, published 2023).

Data set [1] has as its system 4T1-EGFRvIII orthotopic breast cancer xenografts. Put plainly: Mouse 4T1-EGFRvIII orthotopic breast cancer xenografts, olaparib and CAR-T. The class given is in vivo, BALB/c mice. As to conditions: olaparib 50 mg/kg i.p. with CAR-T cells. The method, then: (1) Establishment of mouse orthotopic breast cancer model and respective treatment in groups:
4T1-EGFRvIII cells in the logarithmic growth phase and growing well are collected, inoculating 5×10^5 target cells at right side position of the third pair of accessory breasts of BABL/C mice (mice with normal immune system), and the inoculating day is recorded as the first day (i.e., Day 1).
On the 10th day after tumor inoculation (i.e. Day 10), mouse T cells are taken and 806-mCD28z-CAR-T cell line is constructed as described in step 1 of this example.
On the 14th day after tumor inoculation (i.e., Day 14), the volume of the tumor reaches about 150 mm^3, and the mice are divided in groups: […]
(2) Detection of tumor volume. The tumor volume changes of mice are observed and measured continuously, and recorded three times a week. […]
(4) Detection of CAR-T copy number in tumor tissues. Tumor tissues of each group of mice are ground to extract DNA, and the sequence of retroviral vector fragment is detected by Taqman probe method to determine the DNA copy number of 806-mCD28z-CAR. […]
(6) Detection of MDSC cells in tumor tissue. The tumor tissues of mice in each group are ground, and after enzyme digestion, the changes in the proportion of MDSC cells are analyzed by flow cytometry. […]

The next data set relates to 806-mCD28z-CAR-T cells. As to the kind of experiment: CCK8 proliferation assay, olaparib on CAR-T cells. The class given is cell-based, mouse. The method, then:
(§1) As an effective inhibitor of PARP1, olaparib may inhibit PARP1 to participate in DNA damage repair process. In mouse breast cancer cell lines and mouse T cells and CART cells, different levels of PARP1 expression are detected (FIG. 2B). Therefore, CCK8 proliferation assay is required to detect the effect of olaparib on proliferation of tumor cells and CART cells.
(§2) 806-m28Z CAR-T cells in Example 1 are taken to spread in a 96-well plate with 1×10^4 cells per well and 100 μl medium. Breast cancer cells E0771-EGFRvIII and 4T1-EGFRvIII are taken to spread in a 96-well plate with 1×10^4 cells per well and 100 μl medium. Different concentrations of olaparib are taken to add to the cells to make 10 concentration gradients (i.e., the treatment concentrations of olaparib are respectively 50 μM, 20 μM, 10 μM, 5 μM, 2.5 μM, 1 μM, 0.1 μM, 0.01 μM, 0.001 μM, 0 μg/ml). After 48 hours of drug treatment for cells of different groups, 10 μl of CCK8 substrate color reagent (Dojindo) is added to each well; after incubating for 1 hour at 37° C., the absorbance at 450 nm is measured by a microplate reader, calculating the cell viability respectively.
(§3) The formula for calculating the cell viability is as follows:
(§4) Cell viability (%)=[A (adding drug)−A (blank)]/[A (without adding drug)−A (blank)]
On the technique in general: Tetrazolium dyes change colour on reduction, which living cells bring about.

Another data set relates to E0771-EGFRvIII cells. As to the kind of experiment: CCK8 proliferation assay, olaparib on E0771-EGFRvIII breast cancer cells. The data set is classed as cell-based, mouse.
Text: (§5) Since the EGFR287-302 epitope is only exposed in EGFRvIII or tumors overexpressing EGFR, this epitope is hidden in normal tissues (Gan H K et al., Targeting of a conformationally exposed, tumor-specific epitope of EGFR as a strategy for cancer therapy. Cancer Res. 2012, 72(12):2924-2930), conventional methods in molecular biology are used to establish E0771, 4T1 mouse breast cancer cell models (E0771-EGFRvIII, 4T1-EGFRvIII) that overexpress mouse EGFR inserted with amino acid epitope at positions 287-302 of human EGFR. Subsequent research is performed to screen EGFRvIII target-positive cells by cell flow cytometry (FIG. 2A). E0771, 4T1 cells are purchased from the American Type Culture Collection (ATCC).
as §1, §2, §3, §4

In a further data set the test system is 4T1-EGFRvIII cells. Put plainly: CCK8 proliferation assay, olaparib on 4T1-EGFRvIII breast cancer cells. The class given is cell-based, mouse.
Text: as §5, §1, §2, §3, §4

Setting [2] is: 1 μM and higher concentration of olaparib, 48 hours, CCK8.

In the case of `O=C(c1cc(Cc2n[nH]c(=O)c3ccccc23)ccc1F)N1CCN(C(=O)C2CC2)CC1` [olaparib], the “toxicity of combining olaparib with CAR-T cell therapy (from body weights)” value in data set [1] is “do not cause significant toxicity”. For the same compound, the “proliferation of 806-mCD28z-CAR-T cells” value is “not affected” in the data set with 806-mCD28z-CAR-T cells (1 μM olaparib) and “inhibited” in the data set on 806-mCD28z-CAR-T cells (olaparib). Moreover, the “inhibition rate of proliferation of 806-mCD28z-CAR-T cells” value with 806-mCD28z-CAR-T cells (2.5 μM and higher concentration of olaparib, 48 hours, CCK8) is reported as approximately 80%. For the same compound, in the data set with 806-mCD28z-CAR-T cells (in vitro), the “concentration that may inhibit the growth of CAR-T cells” value is given as “higher than 2.5 μM”. For the same compound, the “inhibition rate of proliferation of E0771-EGFRVIII cell line” value in the data set on E0771-EGFRvIII cells (setting [2]) was 65%-90%. Moreover, the “proliferation of E0771-EGFRVIII cells” value in the data set on E0771-EGFRvIII cells (1 μM olaparib) is given as “inhibited”. Moreover, the “concentration that may inhibit the growth of tumor cells” value in the data set on E0771-EGFRvIII cells (in vitro, tumor cells not specified further) is “higher than 104”. Besides, the “proliferation of E0771-EGFRVIIII cells” value in the data set on E0771-EGFRvIII cells (olaparib) is listed as “inhibited”. Further, in the data set on 4T1-EGFRvIII cells (setting [2]), the “inhibition rate of proliferation of 4T1-EGFRvIII cell line” value was 30-40%. The “proliferation of 4T1-EGFRvIII cells” value in the data set with 4T1-EGFRvIII cells (1 μM olaparib) and in the data set with 4T1-EGFRvIII cells (504 olaparib) was “inhibited” in each case.
